Results taken from patent US12624027B2, “Salts and polymorphic forms of 6-chloro-7-(4-(4-chlorobenzyl)piperazin-1-yl)-2-(1,3-dimethyl-1H-pyrazol-4-yl)-3H-imidazo[4,5-b]pyridine” (ELLIPSES PHARMA LTD, priority 2020, dated 2026).
“Also recorded” adds a separate entry of the source. Where a name gives a salt, the structure may show the parent alone. Read-outs that look alike come from different tables or passages of the source.

Experiments:
Assay type in all cases: physicochemical
[1] = Aqueous solubility of Compound A salts (salt assessment)
Protocol: The mono-mesylate, di-mesylate, mono-hydrochloride, di-hydrochloride and fumarate salts of Compound A were assessed for compliance with the following properties identified by the inventors as being relevant to pharmaceutical suitability:
Aqueous solubility was determined by weighing out ˜3 mg of the salt form into a clean HPLC vial, adding HPLC grade water, shaking, vortexing, and/or sonicating to mix and aid dissolution as necessary. Once fully dissolved (clear solution) solubility is calculated based on the amount of water added. HPLC purity and DVS can be determined using methods described herein or methods known in the art. Processability is based on solubility of the salt form in certain excipients. Automated elemental analysis can be performed with 10 mg of the Compound A salt, using caffeine as a reference material. CHNX and the stoichiometry of the salt to the Compound A is determined. Dissolution was determined across 4 pH values (2.0, 3.8, 5.3, 7.2) using a Sirius T3 module, SOP 2070 and 2071, with 5 to 10 mg of Compound A salt compressed into a tablet disc.

[2] = Dynamic vapour sorption (DVS), hygroscopicity; settings: for form change, hydration or dehydration after DVS (XRPD of recovered solids): after sorption/desorption cycles; for DVS uptake (weight increase): 25° C.
Protocol: Approximately, 10-20 mg of sample was placed into a mesh vapor sorption balance pan and loaded into a DVS Intrinsic dynamic vapour sorption balance by Surface Measurement Systems. The sample was subjected to a ramping profile from 40-90% relative humidity (RH) at 10% increments, maintaining the sample at each step until a stable weight had been achieved (dm/dt 0.004%, minimum step length 30 minutes, maximum step length 500 minutes) at 25° C. After completion of the sorption cycle, the sample was dried using the same procedure to 0% RH and then a second sorption cycle back to 40% RH. Two cycles were performed. The weight change during the sorption/desorption cycles were plotted, allowing for the hygroscopic nature of the sample to be determined. XRPD analysis was then carried out on any solid retained.

[3] = Thermodynamic solubility assessment in biological media (FaSSIF, FeSSIF, FaSSGF), HPLC of mother liquors
Protocol: The thermodynamic solubility of Compound A free base, Compound A fumarate Form 1 and Compound A hemi-fumarate Form 3 was assessed in 3 biological media: Fasted State Simulated Intestinal Fluid (FaSSIF); Fed State Simulated Intestinal Fluid (FeSSIF) and Fasted State Simulated Gastric Fluid (FaSSGF).
The following procedure was carried out. Approximately 10 mg of material was weighed into 3×1.5 mL glass vials. 0.02 mL aliquots of appropriate buffer were added to each vial until a final concentration of 10 mg/mL was obtained. The samples were then filtered via centrifugation and the mother liquors analyzed by HPLC.

[4] = Stability of Form 1 on storage (appearance, HPLC, water content, XRPD)
Protocol: The stability of Form 1 was tested for compliance with the following stability acceptance criteria:
Form 1 was prepared as described in Example X above. The following amounts of Form 1 were weighed into 30 ml HDPE Nalgene containers:
Each container was placed into a small grip-seal bag and incubated at the conditions above.
Visual appearance and purity by HPLC were assessed periodically (at 0, 1, 3, 6, 9, 12, and 24 months). Water content was assessed at 0, 1, 6, and 12 months by Karl Fisher titration and TGA. XRPD spectra were taken at 0, 1, 3 and 6 months.

[5] = Stability of the crystalline form in organic solvents and on handling (XRPD)
Protocol: XRPD analysis was carried out on a PANalytical X'pert pro with PIXcel detector (128 channels), scanning the samples between 3 and 35° 2θ. The material was gently ground to release any agglomerates and loaded onto a multi-well plate with Kapton or Mylar polymer film to support the sample. The multi-well plate was then placed into the diffractometer and analyzed using Cu K radiation (α1 λ=1.54060 Å; α2=1.54443 Å; β=1.39225 Å; α1:α2 ratio=0.5) running in transmission mode (step size 0.01300 2θ, step time 18.87 s) using 40 kV/40 mA generator settings. Data were visualized and images generated using the HighScore Plus 4.7 desktop application (PANalytical, 2017).
A slurry of Compound A fumarate lyophile is prepared by adding aliquots of solvent to the lyophile until a mobile slurry was observed. Solvents and volumes can be found in Table 1 below. The slurries are temperature cycled with agitation, between ambient (ca. 25° C.) and 40° C. in 4-hour cycles over 72 hours. Post-temperature cycling the samples were filtered via centrifugation. Isolated solids can be analysed by XRPD.

[6] = 1-week stability study of Form 3 (XRPD and HPLC)
Protocol: The stability of Compound A fumarate Form 3 was assessed under ambient and stressed conditions. The following procedure was carried out. Approximately 20 mg of material was added to 3×1.5 mL glass vials. The vials were then stored under the following conditions: • Ambient light and temperature (closed vial) • 40° C./75% RH (open vial) • 80° C. (closed vial)
After 1 week the samples were collected and analyzed by XRPD and HPLC.

[7] = Long term-storage stability of Form 7
[8] = Ambient light and temperature (closed vial)

Cc1nn(C)cc1-c1nc2c(N3CCN(Cc4ccc(Cl)cc4)CC3)c(Cl)cnc2[nH]1 [Compound A fumarate, 6-chloro-7-(4-(4-chlorobenzyl)piperazin-1-yl)-2-(1,3-dimethyl-1H-pyrazol-4-yl)-3H-imidazo[4,5-b]pyridine]
solubility ([1]; HPLC grade water, water, thermodynamic from solid): 50 to 4000 µg/mL | hygroscopicity (in words) ([2]; listed as fumarate salt): unexpectedly low hygroscopicity | hygroscopicity (in words) ([2]; listed as fumarate salt of Compound A): only slightly hygroscopic

Cc1nn(C)cc1-c1nc2c(N3CCN(Cc4ccc(Cl)cc4)CC3)c(Cl)cnc2[nH]1 [Compound A mesylate, 6-chloro-7-(4-(4-chlorobenzyl)piperazin-1-yl)-2-(1,3-dimethyl-1H-pyrazol-4-yl)-3H-imidazo[4,5-b]pyridine]
solubility compared to the free base of Compound A ([1]; aqueous): unexpectedly large increase in solubility

Cc1nn(C)cc1-c1nc2c(N3CCN(Cc4ccc(Cl)cc4)CC3)c(Cl)cnc2[nH]1 [Form 1, 6-chloro-7-(4-(4-chlorobenzyl)piperazin-1-yl)-2-(1,3-dimethyl-1H-pyrazol-4-yl)-3H-imidazo[4,5-b]pyridine]
Concentration (thermodynamic solubility) ([3]; FaSSGF pH 1.6, listed as Compound A fumarate form 1): 3400 µg/mL | Concentration (thermodynamic solubility) ([3]; FaSSIF pH 6.5, listed as Compound A fumarate form 1): insoluble; also recorded: Below LOD | Concentration (thermodynamic solubility) ([3]; FeSSIF pH 5.0, listed as Compound A fumarate form 1): 300 µg/mL | form change, hydration or dehydration after DVS (XRPD of recovered solids) [2]: No evidence of form change | DVS uptake as equivalents of water ([2]; at 90% RH): 0.07 equivalents of water | DVS uptake (weight increase) ([2]; at 90% RH): 0.7 wt. % | changes in XRPD / form on storage ([4]; 0, 1, 3 and 6 months, ambient and accelerated conditions): no significant changes; also recorded: no changes in XRPD | levels of impurities (HPLC) ([4]; 5° C., 25° C./60% RH, 40° C./75% RH, 55° C., over 24 months): ≤ 0.6% | water content ([4]; after 12 months, Karl Fisher titration and TGA): below the limit of quantification | changes in mass ([4]; storage at 5° C., 25° C./60% RH, 40° C./75% RH, 55° C.): negligible | change in form upon exposure to organic solvents (XRPD) ([5]; 1-butanol, 1-propanol, 2-ethoxyethanol, acetone, acetonitrile, MEK, THF, 1,1-dimethoxymethane, or DMSO): no change in form

Cc1nn(C)cc1-c1nc2c(N3CCN(Cc4ccc(Cl)cc4)CC3)c(Cl)cnc2[nH]1 [Form 2, 6-chloro-7-(4-(4-chlorobenzyl)piperazin-1-yl)-2-(1,3-dimethyl-1H-pyrazol-4-yl)-3H-imidazo[4,5-b]pyridine]
change in form (XRPD peaks, spectra, unit cell) ([5]; 1,4-dioxane and lyophilisation conditions): no change in the characteristic XRPD peaks, spectra, or unit cell

Cc1nn(C)cc1-c1nc2c(N3CCN(Cc4ccc(Cl)cc4)CC3)c(Cl)cnc2[nH]1 [Form 3, 6-chloro-7-(4-(4-chlorobenzyl)piperazin-1-yl)-2-(1,3-dimethyl-1H-pyrazol-4-yl)-3H-imidazo[4,5-b]pyridine]
Concentration (thermodynamic solubility) ([3]; FaSSGF pH 1.6, listed as Compound A fumarate form 3): 2000 µg/mL | Concentration (thermodynamic solubility) ([3]; FaSSIF pH 6.5, listed as Compound A fumarate form 3): <100 µg/mL | solubility thermodynamic ([3]; FaSSIF, pH 6.5, fassif, thermodynamic from solid, FaSSIF pH 6.5, read-out: Concentration (thermodynamic solubility)): < 100 µg/mL | Concentration (thermodynamic solubility) ([3]; FeSSIF pH 5.0, listed as Compound A fumarate form 3): <100 µg/mL | form change, hydration or dehydration after DVS (XRPD of recovered solids) [2]: No evidence of hydration or dehydration | DVS uptake (weight increase) ([2]; at 90% RH): ca. 0.5 wt. % | Purity (% area) after storage ([6]; 40° C./75% RH (open vial)): 99.5 % area | XRPD form after storage ([6]; 40° C./75% RH (open vial)): Form 3 | Purity (% area) after storage ([6]; 80° C. (closed vial)): 99.6 % area | XRPD form after storage ([6]; 80° C. (closed vial)): Form 3 | Purity (% area) after storage [6, 8]: 99.6 % area | XRPD form after storage [6, 8]: Form 3 | changes in purity after storage ([6]; all three storage conditions): No changes in purity | visual changes after storage ([6]; all three storage conditions): No visual changes | change in form on handling in organic solvents (XRPD) ([5]; dimethoxymethane, 2-MeTHF, water:MeOH, EtOAc, IPA, MEK, MIBK, THF, acetone, acetonitrile): without change in form

Cc1nn(C)cc1-c1nc2c(N3CCN(Cc4ccc(Cl)cc4)CC3)c(Cl)cnc2[nH]1 [Form 4, 6-chloro-7-(4-(4-chlorobenzyl)piperazin-1-yl)-2-(1,3-dimethyl-1H-pyrazol-4-yl)-3H-imidazo[4,5-b]pyridine]
stability in organic solvents (XRPD) ([5]; 1,4-dioxane): stable | form change on drying ([5]; drying): converts to Form 2

Cc1nn(C)cc1-c1nc2c(N3CCN(Cc4ccc(Cl)cc4)CC3)c(Cl)cnc2[nH]1 [Form 5, 6-chloro-7-(4-(4-chlorobenzyl)piperazin-1-yl)-2-(1,3-dimethyl-1H-pyrazol-4-yl)-3H-imidazo[4,5-b]pyridine]
change in form on handling in organic solvents (XRPD) ([5]; benzyl alcohol): without any change in form

Cc1nn(C)cc1-c1nc2c(N3CCN(Cc4ccc(Cl)cc4)CC3)c(Cl)cnc2[nH]1 [Form 6, 6-chloro-7-(4-(4-chlorobenzyl)piperazin-1-yl)-2-(1,3-dimethyl-1H-pyrazol-4-yl)-3H-imidazo[4,5-b]pyridine]
change in form on handling in solvent (XRPD) ([5]; DMSO): without any change in form

Cc1nn(C)cc1-c1nc2c(N3CCN(Cc4ccc(Cl)cc4)CC3)c(Cl)cnc2[nH]1 [Form 7, 6-chloro-7-(4-(4-chlorobenzyl)piperazin-1-yl)-2-(1,3-dimethyl-1H-pyrazol-4-yl)-3H-imidazo[4,5-b]pyridine]
hygroscopicity (in words) [2]: only slightly hygroscopic | change in form on handling in organic solvents (XRPD) ([5]; methanol and TBME): without any change in form | stability under long term-storage conditions [7]: stable

Cc1nn(C)cc1-c1nc2c(N3CCN(Cc4ccc(Cl)cc4)CC3)c(Cl)cnc2[nH]1 [Form 8, 6-chloro-7-(4-(4-chlorobenzyl)piperazin-1-yl)-2-(1,3-dimethyl-1H-pyrazol-4-yl)-3H-imidazo[4,5-b]pyridine]
stability in organic solvents ([5]; benzyl alcohol): stable
